For assay [1], the system named is PKB Ser473 phosphorylation in Rat1-myr-HA-p110 beta cells. As to the kind of experiment: Reverse protein array, PKB Ser473 phosphorylation in Rat1-myr-HA-p110 beta cells. The format is cell-based. The following applies: Rattus norvegicus, 0.5 h, 30 minutes compound incubation, read-out: p-PKB/IC50_beta.
A further assay has as its target T1, mTOR (Homo sapiens, UniProt P42345).
T1 construct: purchased Invitrogen Corporation (Carlsbad/Calif., USA) PV4753
Description: Biochemical assay for m-TOR by TR-FRET. An outline of the steps:
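mTOR (0.5 nM) phosphorylates GFP-4EBP1 (400 nM) with 8 μM ATP at rt in 50 mM HEPES pH 7.5, 10 mM MnCl2, 50 mM NaCl, 1 mM EGTA, 1 mM DTT; compounds 0.003–10 μM final. EDTA stop with Tb-anti-p4EBP1[pT46] antibody (0.5 nM); TR-FRET read after 15 min against no-enzyme and vehicle controls.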

pIC50: −log10 of the molar value. Like-named read-outs stand apart in the source and are kept apart here.

T1 sequence (P42345 1360-2549 limits assumed): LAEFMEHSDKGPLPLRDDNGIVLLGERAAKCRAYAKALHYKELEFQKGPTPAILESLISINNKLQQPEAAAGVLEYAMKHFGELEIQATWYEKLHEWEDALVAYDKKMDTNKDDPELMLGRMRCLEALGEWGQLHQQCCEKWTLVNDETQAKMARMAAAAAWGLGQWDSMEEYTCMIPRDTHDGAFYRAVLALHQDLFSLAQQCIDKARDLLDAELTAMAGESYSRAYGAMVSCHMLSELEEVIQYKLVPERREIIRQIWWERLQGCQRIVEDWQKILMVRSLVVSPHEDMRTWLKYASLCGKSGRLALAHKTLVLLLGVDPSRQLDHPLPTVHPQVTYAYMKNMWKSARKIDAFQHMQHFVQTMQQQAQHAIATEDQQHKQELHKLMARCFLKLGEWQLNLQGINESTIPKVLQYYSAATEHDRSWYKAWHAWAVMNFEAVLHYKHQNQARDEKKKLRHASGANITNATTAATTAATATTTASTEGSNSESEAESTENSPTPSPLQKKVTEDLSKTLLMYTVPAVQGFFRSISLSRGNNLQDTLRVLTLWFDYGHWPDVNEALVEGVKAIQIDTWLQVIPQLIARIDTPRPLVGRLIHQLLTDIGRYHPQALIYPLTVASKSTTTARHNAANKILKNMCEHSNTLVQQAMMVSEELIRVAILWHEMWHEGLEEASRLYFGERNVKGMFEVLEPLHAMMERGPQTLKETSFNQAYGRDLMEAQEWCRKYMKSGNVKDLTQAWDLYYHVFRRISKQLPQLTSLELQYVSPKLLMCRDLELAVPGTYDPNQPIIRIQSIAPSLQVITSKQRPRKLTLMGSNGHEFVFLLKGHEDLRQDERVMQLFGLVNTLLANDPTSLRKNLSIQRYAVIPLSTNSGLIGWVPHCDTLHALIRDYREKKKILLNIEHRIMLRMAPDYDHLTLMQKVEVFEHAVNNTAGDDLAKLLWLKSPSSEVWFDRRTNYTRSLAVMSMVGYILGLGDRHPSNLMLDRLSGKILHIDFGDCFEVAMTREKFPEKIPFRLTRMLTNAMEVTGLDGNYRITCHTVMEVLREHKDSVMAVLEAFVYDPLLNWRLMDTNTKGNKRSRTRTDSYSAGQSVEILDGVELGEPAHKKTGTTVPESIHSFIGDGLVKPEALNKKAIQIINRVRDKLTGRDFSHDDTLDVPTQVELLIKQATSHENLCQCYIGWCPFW

On to `CNC(=O)c1ccc(-c2ccc3ncc4c(c3c2)n(-c2cccnc2C)c(=O)n4C)cc1` [Example 2.4, N-Methyl-4-[3-methyl-1-(2-methyl-pyridin-3-yl)-2-oxo-2,3-dihydro-1H-imidazo[4,5-c]quinolin-8-yl]-benzamide], for which the pIC50 in assay [1] was 7.83; at mTOR (read-out: mTOR/IC50) it was 7.92. As for `Cc1ncccc1-n1c(=O)n(C)c2cnc3ccc(-c4cnc5[nH]ccc5c4)cc3c21` [Example 2.8, 3-Methyl-1-(2-methyl-pyridin-3-yl)-8-(1H-pyrrolo[2,3-b]pyridin-5-yl)-1,3-dihydro-imidazo[4,5-c]quinolin-2-one], in assay [1], the pIC50 was 8.02. Turning to `COCc1ncc(-c2ccc3ncc4c(c3c2)n(-c2cccnc2C)c(=O)n4C)cc1OC` [Example 2.30, 8-(5-Methoxy-6-methoxymethyl-pyridin-3-yl)-3-methyl-1-(2-methyl-pyridin-3-yl)-1,3-dihydro-imidazo[4,5-c]quinolin-2-one], the pIC50 in assay [1] is 6.86; at mTOR (read-out: EPK_mTOR/IC50), 7.11.

Turning to `Cn1c(=O)n(-c2cccnc2F)c2c3cc(-c4cnc5[nH]ccc5c4)ccc3ncc21` [Example 6.3, 1-(2-Fluoro-pyridin-3-yl)-3-methyl-8-(1H-pyrrolo[2,3-b]pyridin-5-yl)-1,3-dihydro-imidazo[4,5-c]quinolin-2-one], the pIC50 was 7.85 in assay [1] and 7.33 on mTOR (read-out: mTOR/IC50). On to `Cc1nc(F)ccc1-n1c(=O)n(C)c2cnc3ccc(-c4cncc(N5CCC5)c4)cc3c21` [Example 7.6, 8-(5-Azetidin-1-yl-pyridin-3-yl)-1-(6-fluoro-2-methyl-pyridin-3-yl)-3-methyl-1,3-dihydro-imidazo[4,5-c]quinolin-2-one], for which the pIC50 was 7.64 in assay [1] and 7.23 at mTOR (read-out: EPK_mTOR/IC50). As to `COCc1ncc(-c2ccc3ncc4c(c3c2)n(-c2ccc(F)nc2C)c(=O)n4C)cc1OC` [Example 7.7, 1-(6-Fluoro-2-methyl-pyridin-3-yl)-8-(5-methoxy-6-methoxymethyl-pyridin-3-yl)-3-methyl-1,3-dihydro-imidazo[4,5-c]quinolin-2-one], the pIC50 in assay [1] is 6.56; at mTOR (read-out: EPK_mTOR/IC50), 6.35. For the compound `COc1cc(-c2ccc3ncc4c(c3c2)n(-c2ccc(F)nc2C)c(=O)n4C)cnc1CO` [Example 7.10, 1-(6-Fluoro-2-methyl-pyridin-3-yl)-8-(6-hydroxymethyl-5-methoxy-pyridin-3-yl)-3-methyl-1,3-dihydro-imidazo[4,5-c]quinolin-2-one], the pIC50 in assay [1] is 7.02; on mTOR (read-out: EPK_mTOR/IC50), 6.52. As for `COc1ccc(-n2c(=O)n(C)c3cnc4ccc(-c5cncc(N6CCC6)c5)cc4c32)c(OC)n1` [Example 8.11, 8-(5-Azetidin-1-yl-pyridin-3-yl)-1-(2,6-dimethoxy-pyridin-3-yl)-3-methyl-1,3-dihydro-imidazo[4,5-c]quinolin-2-one], the results for the pIC50 (in assay [1]; on mTOR (read-out: EPK_mTOR/IC50)) were 7.77 and 8.30, respectively. Turning to `COc1ccc(-n2c(=O)n(C)c3cnc4ccc(-c5cnc(C(OC)OC)c(OC)c5)cc4c32)c(OC)n1` [Example 8.13, 8-(6-Dimethoxymethyl-5-methoxy-pyridin-3-yl)-1-(2,6-dimethoxy-pyridin-3-yl)-3-methyl-1,3-dihydro-imidazo[4,5-c]quinolin-2-one], the pIC50 in assay [1] is 6.67; at mTOR (read-out: EPK_mTOR/IC50) it was 7.07. Take `COc1ccc(-n2c(=O)n(C)c3cnc4ccc(-c5cnc(CO)c(OC)c5)cc4c32)c(OC)n1` [Example 8.14, 1-(2,6-Dimethoxy-pyridin-3-yl)-8-(6-hydroxymethyl-5-methoxy-pyridin-3-yl)-3-methyl-1,3-dihydro-imidazo[4,5-c]quinolin-2-one]: the pIC50 in assay [1] is 7.25; at mTOR (read-out: EPK_mTOR/IC50), 6.94. On to `COc1cc(-c2ccc3ncc4c(c3c2)n(-c2ccc(N3CC(F)(F)C3)nc2C)c(=O)n4C)cnc1CO` [Example 24.4, 1-[6-(3,3-Difluoro-azetidin-1-yl)-2-methyl-pyridin-3-yl]-8-(6-hydroxymethyl-5-methoxy-pyridin-3-yl)-3-methyl-1,3-dihydro-imidazo[4,5-c]quinolin-2-one], for which the results for the pIC50 (in assay [1]; at mTOR (read-out: EPK_mTOR/IC50)) were 7.36 and 6.35, respectively.
